Earlier results as cited in patent publication US6552014B2, “Methods of inhibiting platelet activation with selective serotonin reuptake inhibitors” (HeartDrug Research, L.L.C., priority 1999, dated 2003).
Counter-ions that a name gives are not always drawn.

Assays:
Settings in all cases: cited from earlier work
[1] = tested on: serotonin 5-HT3 receptors
serotonin 5-HT2 receptor = tested on: serotonin 5-HT2 receptor
[2] = tested on: central 2 alpha-adrenergic autoreceptors, and heteroreceptors

| SMILES | antagonism of serotonin 5-HT3 receptors, in words [1] | antagonism of serotonin 5-HT2 receptor, in words (serotonin 5-HT2 receptor) | antagonism of central 2 alpha-adrenergic autoreceptors and heteroreceptors, in words [2] |
| --- | --- | --- | --- |
| CN1CCN2c3ncccc3Cc3ccccc3C2C1 (stereo not shown) [Mirtazapine] | antagonist | antagonist | potent antagonist |
| CCc1nn(CCCN2CCN(c3cccc(Cl)c3)CC2)c(=O)n1CCOc1ccccc1 [Nefazodone, 2-[3-[4-(3-chlorophenyl)-1-piperazinyl]propyl]-5-ether-2,4-dihydro-4-(2-phenoxyethyl)-3H-1,2,4-triazol-3-one monohydrochloride] |  | potent serotonin 5-HT2 receptor antagonist |  |
